{"source": "patent US20230142913A1", "about": "“TRICYCLIC HETEROARENES, PHARMACEUTICAL COMPOSITIONS CONTAINING THE SAME, AND METHODS OF USING THE SAME” (priority 2021, published 2023)", "target": "T1, recombinant human Myt1 (full length PKMYT1) (Homo sapiens, UniProt Q99640)", "T1 sequence (Q99640 1-499)": "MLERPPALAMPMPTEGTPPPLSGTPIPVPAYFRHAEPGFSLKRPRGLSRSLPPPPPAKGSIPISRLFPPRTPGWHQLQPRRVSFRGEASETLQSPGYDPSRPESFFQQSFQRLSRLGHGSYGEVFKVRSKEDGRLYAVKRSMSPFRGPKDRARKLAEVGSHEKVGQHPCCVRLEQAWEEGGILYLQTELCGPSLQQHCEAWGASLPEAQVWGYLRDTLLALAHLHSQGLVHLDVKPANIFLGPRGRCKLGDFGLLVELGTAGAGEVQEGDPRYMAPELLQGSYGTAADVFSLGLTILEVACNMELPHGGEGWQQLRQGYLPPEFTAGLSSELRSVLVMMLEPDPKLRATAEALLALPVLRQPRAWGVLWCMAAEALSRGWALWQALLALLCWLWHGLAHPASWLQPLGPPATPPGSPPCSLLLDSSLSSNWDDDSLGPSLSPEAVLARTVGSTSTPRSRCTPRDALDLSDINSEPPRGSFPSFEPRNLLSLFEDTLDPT", "experiment": "Recombinant human Myt1 kinase assay (ADP-Glo)", "key": {"[1]": {"settings": "read-out: Myt1 IC50, recombinant human Myt1 18 nM, ATP 10 μM, ADP-Glo luminescence"}, "[2]": {"settings": "Myt1 IC50 (nM), recombinant human Myt1 18 nM, ATP 10 μM, ADP-Glo luminescence"}}, "note": "Where two headings read alike, the source gives them in different places.", "protocol": "Detection of Myt1 kinase activity utilized a recombinant human Myt1 kinase assay measuring the hydrolysis of ATP using a commercially available ADP-Glo Assay (ADP-Glo™ Kinase Assay from Promega, 10 000 assays, #V9102). […] After this, 5 μL of compounds (diluted in reaction buffer to 0.5% DMSO) was added to the microplate and the plate was spun briefly and incubated at 22° C. for 15 minutes. […] Luminescence was read using the Envision (250 ms integration). The IC50 and the % max inhibition were calculated for each inhibitor compound tested."}
{"compound": "2-amino-1-(3-hydroxy-2,6-dimethyl-phenyl)-7-(1-hydroxy-1-methyl-ethyl)pyrrolo[3,2-b]quinoxaline-3-carboxamide or 2-amino-1-(3-hydroxy-2,6-dimethyl-phenyl)-6-(1-hydroxy-1-methyl-ethyl)pyrrolo[3,2-b]quinoxaline-3-carboxamide [Compound 67]", "values": [{"measurement": "IC50", "setting": "[1]", "value": 10, "unit": "nM"}]}
{"compound": "2-amino-1-(3-hydroxy-2,6-dimethyl-phenyl)-7-(morpholine-4-carbonyl)pyrrolo[3,2-b]quinoxaline-3-carboxamide or 2-amino-1-(3-hydroxy-2,6-dimethyl-phenyl)-6-(morpholine-4-carbonyl)pyrrolo[3,2-b]quinoxaline-3-carboxamide [Compound 66]", "values": [{"measurement": "IC50", "setting": "[1]", "value": 13, "unit": "nM"}]}
{"compound": "2-amino-1-(3-hydroxy-2,6-dimethylphenyl)-1H-pyrido[2,3-b]pyrrolo[2,3-e]pyrazine-3-carboxamide or 2-amino-1-(3-hydroxy-2,6-dimethylphenyl)-1H-pyrido[2,3-b]pyrrolo[3,2-e]pyrazine-3-carboxamide [Compound 82]", "values": [{"measurement": "IC50", "setting": "[1]", "value": 21, "unit": "nM"}]}
{"compound": "2-amino-7-bromo-1-(3-hydroxy-2,6-dimethylphenyl)-1H-pyrido[2,3-b]pyrrolo[2,3-e]pyrazine-3-carboxamide or 2-amino-6-bromo-1-(3-hydroxy-2,6-dimethylphenyl)-1H-pyrido[2,3-b]pyrrolo[3,2-e]pyrazine-3-carboxamide [Compound 79]", "values": [{"measurement": "IC50", "setting": "[1]", "value": 30, "unit": "nM"}]}
{"compound": "NC(=O)c1c(N)n(-c2cc(O)ccc2Cl)c2nc3ccccc3nc12", "note": "[Compound 4]", "values": [{"measurement": "IC50", "value": 130, "unit": "nM"}]}
{"compound": "NC(=O)c1c(N)n(-c2cccc3[nH]nc(Cl)c23)c2nc3ccccc3nc12", "note": "[Compound 8]", "values": [{"measurement": "IC50", "value": 289, "unit": "nM"}]}
{"compound": "NC(=O)c1c(N)n(-c2cccc3[nH]nc(F)c23)c2nc3ccccc3nc12", "note": "[Compound 9]", "values": [{"measurement": "IC50", "value": 281, "unit": "nM"}]}
{"compound": "Cc1ccc(O)c(C2CC2)c1-n1c(N)c(C(N)=O)c2nc3ccccc3nc21", "note": "[Compound 11]", "values": [{"measurement": "IC50", "value": 2170, "unit": "nM"}]}
{"compound": "CCc1c(O)ccc(C)c1-n1c(N)c(C(N)=O)c2nc3ccccc3nc21", "note": "[Compound 12]", "values": [{"measurement": "IC50", "value": 98, "unit": "nM"}]}
{"compound": "CCc1ccc(O)c(C)c1-n1c(N)c(C(N)=O)c2nc3ccccc3nc21", "note": "[Compound 13]", "values": [{"measurement": "IC50", "value": 427, "unit": "nM"}]}
{"compound": "Cc1ccc(O)cc1-n1c(N)c(C(N)=O)c2nc3nc(N)sc3nc21", "note": "[Compound 16, 2,6-diamino-5-(5-hydroxy-2-methylphenyl)-5H-pyrrolo[2,3-b]thiazolo[4,5-e]pyrazine-7-carboxamide]", "values": [{"measurement": "IC50", "value": 94, "unit": "nM"}]}
{"compound": "Cc1ccc(O)cc1-n1c(N)c(C(=O)NC2CC2)c2nc3ccccc3nc21", "note": "[Compound 20, 2-amino-N-cyclopropyl-1-(5-hydroxy-2-methylphenyl)-1H-pyrrolo[2,3-b]quinoxaline-3-carboxamide]", "values": [{"measurement": "IC50", "value": 7580, "unit": "nM"}]}
{"compound": "Cc1ccc(O)cc1-n1cc(C(N)=O)c2nc3ccccc3nc21", "note": "[Compound 23]", "values": [{"measurement": "IC50", "value": 323, "unit": "nM"}]}
{"compound": "Cc1ccc(O)c(C)c1-n1c(N)c(C(N)=O)c2nc3c(F)ccc(F)c3nc21", "note": "[Compound 28]", "values": [{"measurement": "IC50", "value": "< 10", "unit": "nM"}]}
{"compound": "Cc1ccc(O)c(C)c1-n1c(N)c(C(N)=O)c2nc3c(C#CC4CC4)cccc3nc21", "note": "[Compound 33]", "values": [{"measurement": "IC50", "value": 16, "unit": "nM"}]}
{"compound": "Cc1ccc(O)c(C)c1-n1c(N)c(C(N)=O)c2nc3c(C4=CCOCC4)cccc3nc21", "note": "[Compound 34]", "values": [{"measurement": "IC50", "value": 12, "unit": "nM"}]}
{"compound": "Cc1ccc(O)c(C)c1-n1c(N)c(C(N)=O)c2nc3c(-c4cccn4C)cccc3nc21", "note": "[Compound 35]", "values": [{"measurement": "IC50", "value": "< 10", "unit": "nM"}]}
{"compound": "Cc1ccc(O)c(C)c1-n1c(N)c(C(N)=O)c2nc3c(-c4ccccc4)cccc3nc21", "note": "[Compound 36]", "values": [{"measurement": "IC50", "value": 17, "unit": "nM"}]}
{"compound": "Cc1ccc(O)c(C)c1-n1c(N)c(C(N)=O)c2nc3cc(Br)ccc3nc21", "note": "[Compound 38, 2-amino-6-bromo-1-(3-hydroxy-2,6-dimethyl-phenyl)pyrrolo[2,3-b]quinoxaline-3-carboxamide]", "values": [{"measurement": "IC50", "setting": "[2]", "value": "< 10", "unit": "nM"}]}
{"compound": "Cc1ccc(O)c(C)c1-n1c(N)c(C(N)=O)c2nc3cc(C#CC4CC4)ccc3nc21", "note": "[Compound 40]", "values": [{"measurement": "IC50", "value": "< 10", "unit": "nM"}]}
{"compound": "Cc1ccc(O)c(C)c1-n1c(N)c(C(N)=O)c2nc3cc(C#Cc4cnccn4)ccc3nc21", "note": "[Compound 43]", "values": [{"measurement": "IC50", "value": "< 10", "unit": "nM"}]}
{"compound": "Cc1ccc(O)c(C)c1-n1c(N)c(C(N)=O)c2nc3cc(C#CCN4CCOCC4)ccc3nc21", "note": "[Compound 44]", "values": [{"measurement": "IC50", "value": "< 10", "unit": "nM"}]}
{"compound": "Cc1ccc(O)c(C)c1-n1c(N)c(C(N)=O)c2nc3cc(C#CCO)ccc3nc21", "note": "[Compound 45, 2-amino-1-(3-hydroxy-2,6-dimethyl-phenyl)-6-(3-hydroxyprop-1-ynyl)pyrrolo[2,3-b]quinoxaline-3-carboxamide]", "values": [{"measurement": "IC50", "value": "< 10", "unit": "nM"}]}
{"compound": "Cc1ccc(O)c(C)c1-n1c(N)c(C(N)=O)c2nc3cc(CCCO)ccc3nc21", "note": "[Compound 46, 2-amino-1-(3-hydroxy-2,6-dimethyl-phenyl)-6-(3-hydroxypropyl)pyrrolo[2,3-b]quinoxaline-3-carboxamide]", "values": [{"measurement": "IC50", "value": "< 10", "unit": "nM"}]}
{"compound": "Cc1ccc(O)c(C)c1-n1c(N)c(C(N)=O)c2nc3cc(-c4ccccc4)ccc3nc21", "note": "[Compound 47]", "values": [{"measurement": "IC50", "value": "< 10", "unit": "nM"}]}
{"compound": "Cc1ccc(O)c(C)c1-n1c(N)c(C(N)=O)c2nc3cc(-c4cccc(C#N)c4)ccc3nc21", "note": "[Compound 48]", "values": [{"measurement": "IC50", "value": 11, "unit": "nM"}]}
{"compound": "Cc1ccc(O)c(C)c1-n1c(N)c(C(N)=O)c2nc3cc(C4=CCOCC4)ccc3nc21", "note": "[Compound 51]", "values": [{"measurement": "IC50", "value": "< 10", "unit": "nM"}]}
{"compound": "Cc1ccc(O)c(C)c1-n1c(N)c(C(N)=O)c2nc3cc(-c4ccc(N5CCN(CCO)CC5)cc4)ccc3nc21", "note": "[Compound 52]", "values": [{"measurement": "IC50", "value": "< 10", "unit": "nM"}]}
{"compound": "Cc1ccc(O)c(C)c1-n1c(N)c(C(N)=O)c2nc3cc(-c4cn[nH]c4)ccc3nc21", "note": "[Compound 54]", "values": [{"measurement": "IC50", "value": "< 10", "unit": "nM"}]}
{"compound": "Cc1ccc(O)c(C)c1-n1c(N)c(C(N)=O)c2nc3ccc(C#CCO)cc3nc21", "note": "[Compound 58]", "values": [{"measurement": "IC50", "value": 11, "unit": "nM"}]}
{"compound": "Cc1ccc(O)c(C)c1-n1c(N)c(C(N)=O)c2nc3cccc(Br)c3nc21", "note": "[Compound 59, 2-amino-8-bromo-1-(3-hydroxy-2,6-dimethyl-phenyl)pyrrolo[3,2-b]quinoxaline-3-carboxamide]", "values": [{"measurement": "IC50", "setting": "[2]", "value": "< 10", "unit": "nM"}]}
{"compound": "Cc1ccc(O)c(C)c1-n1c(N)c(C(N)=O)c2nc3cccc(-c4ccnn4C)c3nc21", "note": "[Compound 61]", "values": [{"measurement": "IC50", "setting": "[2]", "value": "< 10", "unit": "nM"}]}
{"compound": "Cc1ccc(O)c(C)c1-n1c(N)c(C(N)=O)c2nc3cccc(C4=CCCC4)c3nc21", "note": "[Compound 62]", "values": [{"measurement": "IC50", "setting": "[2]", "value": "< 10", "unit": "nM"}]}
{"compound": "C=C(C)c1ccc2nc3c(C(N)=O)c(N)n(-c4c(C)ccc(O)c4C)c3nc2c1", "note": "[Compound 68, 2-amino-1-(3-hydroxy-2,6-dimethyl-phenyl)-7-isopropenyl-pyrrolo[3,2-b]quinoxaline-3-carboxamide or either 2-amino-1-(3-hydroxy-2,6-dimethyl-phenyl)-6-isopropenyl-pyrrolo[3,2-b]quinoxaline-3-carboxamide]", "values": [{"measurement": "IC50", "value": 13, "unit": "nM"}]}
{"compound": "Cc1ccc(O)c(C)c1-n1c(N)c(C(N)=O)c2nc3c(nc21)CCCC3", "note": "[Compound 84]", "values": [{"measurement": "IC50", "value": 11, "unit": "nM"}]}
{"compound": "Cc1c(O)ccc(C2CC2)c1-n1c(N)c(C(N)=O)c2nc3ccccc3nc21", "note": "[Compound 85]", "values": [{"measurement": "IC50", "value": 48900, "unit": "nM"}]}
{"compound": "Cc1ccc(O)c(C)c1-n1cc(C(N)=O)c2c3ccccc3cnc21", "note": "[Compound 88, 3-(3-hydroxy-2,6-dimethylphenyl)-3H-pyrrolo[2,3-c]isoquinoline-1-carboxamide]", "values": [{"measurement": "IC50", "value": 32, "unit": "nM"}]}
{"compound": "Cc1ccc(O)c(C)c1-n1cc(C(N)=O)c2cc3c(cnn3C)nc21", "note": "[Compound 89, 5-(3-hydroxy-2,6-dimethylphenyl)-1-methyl-1,5-dihydropyrazolo[4,3-b]pyrrolo[3,2-e]pyridine-7-carboxamide]", "values": [{"measurement": "IC50", "value": 31, "unit": "nM"}]}
